The record followed here is patent US8796285B2, “Pyrazolo [1,5-a]-pyrimidones derivatives and pharmaceutical compositions and uses thereof” (Hebei Medical University, priority 2009, dated 2014).

One assay has as its target T1, KCNQ2/3 (Homo sapiens, UniProt O43525+O43526).
T1 construct: expressed in transfected cells
Nature of the assay: High throughput atomic absorption Rb+ efflux testing, KCNQ2/3. The format is cell-based. The settings on record: Rb+ efflux by atomic absorption.

Assay [1] addresses KCNQ4 potassium ion channel (Homo sapiens, UniProt P56696). Nature of the assay: High throughput atomic absorption Rb+ efflux testing, CHO cell of KCNQ4 channel. The format is cell-based. Conditions: for EC50: CHO cell of KCNQ4 channel. From the text: Atomic absorption Rb^+ efflux testing is a fast and safe selection method for high throughput potassium channel moderator, and is characterized in that the activity of the ion channel and the control effect of the opener are directly reflected. Rb and K have similar atomic size, and potassium ion channel is permeable to Rb^+. By testing concentration of the Rb^+ efflux, a status of the potassium channel, which is an open status or a close status, can be determined. Rb has specific absorption at 780 nm, and Rb^+ concentration can be determined by atomic absorption spectroscopy. Accordingly, analysis method of atomic absorption spectroscopy can be used to select the opener/inhibitor of potassium channel through high throughput of Rb^+ efflux.
Stable cell transfer of CHO cell of KCNQ4 channel at log phase and inoculate in 96-well culture plate at a density of 2×10^4 unit/well. Each concentration has a triplicate-hole setting, and a control setting with solvent of corresponding concentration. Allow growth against the well-wall overnight, then discard the culture medium, add 200 μl loading buffer which contains RbCl, and culture in 5% CO2 at 37° C. for 3 hours. Then remove the loading buffer and wash with wash buffer for 3 times. Screen for the KCNQ opener, dilute testing compound with depolarization buffer, add 200 μl of the above solvent into the cell and allow reaction for 10 minutes. Incubate for 10 minutes, then carefully draw 200 μl supernatant to another 96-well culture plate, use ICR8000 atomic absorption spectrometry to determine the Rb^+ atomic absorption at 780 nm. Based on the equation Fsupern=(Rb_supern/cpd/Rb_supern/d)×100, calculate the corresponding rate of efflux.

The next assay relates to Male SD rats. Nature of the assay: Formalin-induced pain model. It counts as in vivo. Conditions: rat. On the procedure: Pharmaceutical composition used: the compound number 42 for the testing group, no medication for the positive control group, which is a blank control model.
Testing method: Male SD rats are randomly divided into control group, ipsilateral treatment group (treatment on the same side) and contralateral treatment group (treatment on the opposite side). After 30 minutes from administration of pharmaceutical compound, administer 20 μl of 20 g/L formalin by subcutaneous injection in foot bottom of back paw on the same side or the opposite side of pharmaceutical compound administration, an occurrence of typical lateral swinging and shaking of rat's tail is deemed as successful in preparing induced-pain model, in the next 60 minutes, observe the rat's licking and biting behavior towards the formalin's injection paw at each 5-min interval.

[2] abbreviates: Rb+ efflux by atomic absorption, read-out: KCNQ4.

Read-outs that look alike come from different tables or passages of the source.

As to `COc1ccc(-c2c(C(F)(F)F)nn3c(=O)cc(C(F)(F)F)[nH]c23)cc1OC` [Compound 2, 3-(3,4-dimethoxyphenyl)-2,5-bis(trifluoromethyl)pyrazolo[1,5-a]pyrimidin-7(4H)-one], the EC50 on KCNQ2/3 is 5.65 ± 3.13 µM; in assay [1] (setting [2]), 12.1 ± 0.23 µM.

`CCOC(=O)c1c(C(F)(F)F)nn2c(=O)cc(-c3ccccc3)[nH]c12` [Compound 5]: the EC50 came out at 100 ± 13.3 µM on KCNQ2/3 and 67.8 ± 2.67 µM in assay [1] (setting [2]).

Regarding `O=c1cc(-c2ccc(Cl)cc2)[nH]c2c(-c3ccc(F)cc3)c(C(F)(F)F)nn12` [Compound 8, 2-trifluoromethyl-3-(4-fluorophenyl)-5-(4-chlorophenyl)-pyrazole[1,5-a]pyrimidin-7(4H)-one], the EC50 is 4.76 ± 1.35 µM at KCNQ2/3 and 24.5 ± 4.67 µM in assay [1] (setting [2]).

Take `O=c1cc(-c2cc(F)c(Cl)nc2Cl)[nH]c2c(-c3ccc(F)cc3)c(C(F)(F)F)nn12` [Compound 18, 5-(2,6-dichloro-5-fluoropyrindin-3-yl)-3-(4-fluorophenyl)-2-(trifluoromethyl)pyrazolo[1,5-a]pyrimidin-7(4H)-one]: the EC50 on KCNQ2/3 is 78.7 ± 12.3 µM; in assay [1] (setting [2]), 120 ± 3.23 µM.

On to `O=c1cc(-c2ccccc2)[nH]c2c(-c3ccccc3)c(C(F)(F)F)nn12` [Compound 19, 3,5-diphenyl-2-(trifluoromethyl)pyrazolo[1,5-a]pyrimidin-7(4H)-one], for which the EC50 on KCNQ2/3 stood at 40.2 ± 2.34 µM; in assay [1] (setting [2]) it was 62.1 ± 1.12 µM.

Regarding `O=c1cc(C(F)(F)F)[nH]c2c(-c3ccccc3)c(C(F)(F)F)nn12` [Compound 20, 2,5 bis(trifluoromethyl)-3-phenylpyrazolo [1,5-a]pyrimidin-7(4H)-one], the EC50 at KCNQ2/3 turned out to be 1.28 ± 1.16 µM; in assay [1] (setting [2]), 5.87 ± 2.67 µM.

As to `O=c1cc(-c2cc(F)c(Cl)nc2Cl)[nH]c2c(-c3ccc(F)cc3)c(C(F)(F)F)nn12` [Compound 22], the EC50 on KCNQ2/3 worked out at 1.28 ± 0.12 µM; in assay [1] (setting [2]) it was 0.15 ± 0.09 µM.

Regarding `COc1ccc(-c2c(C(F)(F)F)nn3c(=O)cc(-c4cc(F)c(Cl)nc4Cl)[nH]c23)cc1OC` [Compound 23], the EC50 at KCNQ2/3 was found to be 22.1 ± 1.23 µM; in assay [1] (setting [2]), 10.3 ± 0.43 µM.

`O=c1cc(CN2CCCCC2)[nH]c2c(-c3ccccc3)c(C(F)(F)F)nn12` [Compound 25, 5-(piperidin-1-ylmethyl)-3-phenyl-2-trifluoromethylpyrazolo[1,5-a]pyrimidin-7(4H)-one]: the EC50 on KCNQ2/3 came out at 85.3 ± 3.45 µM; in assay [1] (setting [2]) it was 35 ± 1.21 µM.

On to `O=c1cc(-c2cccc([N+](=O)[O-])c2)[nH]c2c(-c3ccccc3)c(C(F)(F)F)nn12` [Compound 30, 5-(3-nitrophenyl)-3-phenyl-2-trifluoromethylpyrazolo[1,5-a]pyrimidin-7(4H)-one], for which the values for the EC50 (at KCNQ2/3; in assay [1] (setting [2])) were 1.26 ± 0.68 µM and 12.2 ± 0.82 µM, respectively.

Take `O=C(Cc1ccc(C(F)(F)F)cc1)NCc1cc(=O)n2nc(C(F)(F)F)c(-c3ccccc3)c2[nH]1` [Compound 35]: the results for the EC50 (at KCNQ2/3; in assay [1] (setting [2])) were 138 ± 9.28 µM and 44.5 ± 5.28 µM, respectively.

As to `O=c1cc(C(F)(F)F)[nH]c2c(-c3cccc4ccccc34)c(C(F)(F)F)nn12` [Compound 38, 2,5-bis(trifluoromethyl)-3-(naphthalen-1-yl)pyrazolo[1,5-a]pyrimidin-7(4H)-one], the EC50 at KCNQ2/3 came out at 9.29 ± 26.3 µM; in assay [1] (setting [2]), 4.82 ± 3.45 µM.

In the case of `O=c1cc(CCl)[nH]c2c(-c3cccc4ccccc34)c(C(F)(F)F)nn12` [Compound 39, 5-chloromethyl-3-(naphthalen-1-yl)-2-trifluoromethylpyrazolo[1,5-a]pyrimidin-7(4H)-one], the EC50 stood at 5.21 ± 3.21 µM on KCNQ2/3 and 21.7 ± 9.72 µM in assay [1] (setting [2]).

With `O=c1cc(-c2cc(F)c(Cl)nc2Cl)[nH]c2c(-c3cccc4ccccc34)c(C(F)(F)F)nn12` [Compound 42], the EC50 turned out to be 0.53 ± 0.28 µM on KCNQ2/3 and 0.96 ± 0.51 µM in assay [1] (Rb+ efflux, 0.03-10 μM, FIG. 4, read-out: EC50). In assay [1] (Rb+ efflux at 0.03, 0.1, 0.6, 1, 3 and 10 μM, FIG. 4), the “activating effect on the CHO cell of the KCNQ4 potassium ion channel” value was “dose-dependent activating effect”. Moreover, the “accumulated time of licking/biting back paw, first phase” value with Male SD rats (0-10 min after formalin injection, treatment vs control group, p>0.05) is “no significant difference”. In addition, the “accumulated time of licking/biting back paw, second phase” value with Male SD rats (10-60 min after formalin, ipsilateral treatment group vs control group, p<0.05) is listed as “decrease in accumulated time of licking/biting back paw”.

Take `COc1ccc(-c2cc(=O)n3nc(C(F)(F)F)c(-c4cccc5ccccc45)c3[nH]2)cc1` [Compound 47, 5-(4-methoxyphenyl)-3-(naphthalen-1-yl)-2-trifluoromethylpyrazolo[1,5-a]pyrimidin-7(4H)-one]: the EC50 on KCNQ2/3 was 89.2 ± 24.2 µM; in assay [1] (setting [2]) it was 46.2 ± 2.34 µM.

Regarding `O=c1cc(-c2cc(F)c(Cl)nc2Cl)[nH]c2c(-c3cccs3)c(C(F)(F)F)nn12` [Compound 60], the EC50 at KCNQ2/3 came to 5.32 ± 2.23 µM; in assay [1] (setting [2]) it was 1.14 ± 0.34 µM.

As for `O=c1cc(CN2CCNCC2)[nH]c2c(-c3cccs3)c(C(F)(F)F)nn12` [Compound 61], the EC50 at KCNQ2/3 is 77.7 ± 21.3 µM; in assay [1] (setting [2]) it was 33.3 ± 2.12 µM.

For `CCOC(=O)c1c(-c2ccc(Cl)cc2)nn2c(=O)cc(C(F)(F)F)[nH]c12` [Compound 73, ethyl 7-oxo-2-(4-chlorophenyl)-5-(trifluoromethyl)-4,7-dihydropyrazolo[1,5-a]pyrimidine-3-carboxylate], the EC50 was found to be 135 ± 32.2 µM on KCNQ2/3 and 60.6 ± 3.28 µM in assay [1] (setting [2]).

Take `O=c1cc(C(F)(F)F)[nH]c2c(-c3c[nH]c4ccccc34)c(-c3ccc(Cl)cc3)nn12` [Compound 77, 2-(4-chlorophenyl)-3-(1H-indol-3-yl)-5-trifluoromethylpyrazolo[1,5-a]pyrimidin-7(4H)-one]: the EC50 is 32.2 ± 9.32 µM on KCNQ2/3 and 82.3 ± 19.3 µM in assay [1] (setting [2]).

Turning to `O=C(OCc1cc(=O)n2nc(C(F)(F)F)c(N3CCNCC3)c2[nH]1)C(F)(F)F` [Compound 86, (2-trifluoromethyl-3-piperazinyl-7-oxo-4,7-dihydropyrazolo[1,5-a]pyrimidin-5-yl)methyl-2,2,2-trifluoroacetate], the EC50 at KCNQ2/3 turned out to be 98.3 ± 65.2 µM; in assay [1] (setting [2]) it was 50.1 ± 1.34 µM.

As for `O=c1cc(-c2cc(F)c(Cl)nc2Cl)[nH]c2c(-c3cccs3)c(C(Cl)(Cl)Cl)nn12` [Compound 94, 5-(2,6-dichloro-5-fluoropyrido)-3-(thiophen-2-yl)-2-trichloromethyl pyrazolo[1,5-a]pyrimidin-7(4H)-one], the EC50 was determined as 0.28 ± 0.32 µM on KCNQ2/3 and 0.54 ± 0.23 µM in assay [1] (setting [2]).

With `O=c1cc(CCl)[nH]c2c(-c3cccs3)c(C(F)(F)F)nn12` [Compound 96, 5-chloromethyl-3-(thiophen-2-yl)-2-trifluoromethylpyrazolo[1,5-a]pyrimidin-7(4H)-one], in assay [1] (setting [2]), the EC50 was 5.41 ± 2.29 µM.

Consider `O=c1cc(-c2cc(F)c(F)cc2F)[nH]c2c(-c3ccccc3)c(C(Cl)(Cl)Cl)nn12` [Compound 99, 3-phenyl-2-trichloromethyl-5-(2,4,5-trifluorophenyl)pyrazolo[1,5-a]pyrimidin-7(4H)-one], for which the EC50 is 54.5 ± 32.1 µM at KCNQ2/3 and 18.4 ± 1.34 µM in assay [1] (setting [2]).

On to `O=c1cc(CCl)[nH]c2c(-c3cccs3)c(Cl)nn12` [Compound 108, 2-chloro-3-(thiophen-2-yl)-5-chloromethylpyrazolo[1,5-a]pyrimidin-7(4H)-one], for which the EC50 on KCNQ2/3 stood at 56.8 ± 19.4 µM; in assay [1] (setting [2]), 91.2 ± 33.2 µM.

For `O=C(NCc1cc(=O)n2nc(Cl)c(-c3ccc4ccccc4c3)c2[nH]1)C(F)(F)F` [Compound 116, N-((2-chloro-3-(naphthalen-2-yl)-7-oxo-4,7-dihydropyrazolo[1,5-a]pyrimidin-5-yl)methyl)-2,2,2-trifluoroacetamide], the EC50 on KCNQ2/3 amounted to 210 ± 9.8 µM; in assay [1] (setting [2]) it was 43.2 ± 13.7 µM.
